Common to all, as to format: cell-based
For assay [1], the system named is human dermal fibroblasts (hDF) introduced with reprogramming genes. Put plainly: Colony number of induced pluripotent stem cells by alkaline phosphatase (AP) staining. To be noted: for dedifferentiation induction, graph counting and quantifying the number of colonies / AP-stained colonies: 10 μM peptide, 10 days at 24-hr intervals, FIG. 1; for AP-stained colonies: compared with cells without peptide and control peptides C1 or C2; for AP staining clarity: group treated with peptide, reported with FIG. 2. The source says: In order to verify the dedifferentiation induction efficiency of each peptide, the DNAs of reprogramming genes Oct3/4, Sox2, c-Myc, Klf4, and Lin28 were introduced to human dermal fibroblasts (hDF) of 1.5×10^5/well on a 6-well coated with […] of vitronectin recombinant human protein (VTN-N) by an electroporation method. According to a known method, the reprogramming genes were divided into three groups and cloned into three different episomal vectors and expressed together with p53 shRNA(pCXLE-hOCT3/4-shp53, pCXLE-hSK, and pCXLE-hUL) to enhance the establishment efficiency of dedifferentiation of stem cells (Okita, K. et al., Nat. Methods. 8(5):409-12, 2011). The cells introduced with the reprogramming genes were cultured in an Eagle's minimal essential medium (EMEM, ATCC) and the medium was replaced at 24-hr intervals until cell confluency became 50%. When the confluency became 50%, 10 μM of a dedifferentiation induction-promoting peptide and a control peptide were treated, respectively, and the medium was replaced with Essential 8 Medium and the peptides were treated at the same time as the medium replacement every 24 hrs. The peptide was treated for 10 days at 24-hr intervals, and in order to verify dedifferentiation efficiency per peptide, alkaline phosphatase (AP), known as a marker of embryonic stem cells, was used. For AP staining, an alkaline phosphatase detection kit(Milipore) was used. The medium was removed, 4% paraformaldehyde was added to the cells and they were immobilized for 2 minutes, a Naphthol/Fast Red Violet staining agent was added in a well and reacted at room temperature in a dark space for 20 minutes or more, and then the staining agent was washed with Dulbecco's phosphate buffered saline (DPBS) and the number of stained colonies was verified with a microscope.

In assay [2] the test system is human dermal fibroblasts introduced with reprogramming genes. Put plainly: Oct4 embryonic stem cell marker expression by immunofluorescence (IF). To be noted: 10 μM peptide for 10 days; compared with cells without peptide and control peptides C1 or C2; FIG. 2. On the procedure: Using the same method as in Example 2-1, reprogramming genes were introduced into the cells by an electroporation method in human dermal fibroblasts and divided in a 6-well coated with vitronectin. Thereafter, expression levels of Oct4 as a marker of embryonic stem cells were compared with each other by using an immunofluorescence (IF) method. The cells treated with 10 μM of each peptide for 10 days were fixed with 4% paraformaldehyde for 10 minutes at room temperature, and then 0.5% Triton-X 100 was added and they were cultured for 15 minutes at room temperature to pass through a cell wall and to penetrate into nuclei in the cells, and blocked with a buffer PBS in which 3% bovine serum albumin (BSA) was dissolved for 30 minutes. An Oct4 primary antibody was diluted with a buffer PBS in which 1% BSA was dissolved at a ratio of 1:100 and reacted for 16 hrs at 4° C. and a secondary antibody bound with fluorescein isothiocyanate (FITC) was diluted at a ratio of 1:200 and reacted for 1 hr at room temperature. Finally, a dye (Hoechst 33342, blue) for staining nuclei was treated for 10 minutes at room temperature and washed with a buffer PBS, and colonies with the clearest fluorescent expression in the well were photographed with a confocal scanning microscope (IX 70, Olympus Co., Tokyo, Japan).

Assay [3] has the same test system. Put plainly: Mesenchymal-epithelial transition (MET) by THY1/EPCAM flow cytometry (FACS). As to conditions: 10 days of peptide treatment; compared with control peptides C1 or C2; FIG. 3. Here is the method:
Using the same method as in Example 2-1, reprogramming genes were introduced into the cells by an electroporation method in human dermal fibroblasts and divided in a 6-well coated with Vitronectin. After 10 days of peptide treatment in which the cells were stabilized, the cells were collected in a 15 ml Falcon tube by using a scrapper and then centrifuged for 3 minutes at 1500 rpm. The cells were washed with a buffer (PBS) and then 1.5×10^5 cells were transferred to each tube by using cold PBS. THY1 (cat: sc-59398) and EPCAM (cat: ab20160) antibodies at a concentration of 10 μg/ml were diluted with a 3% BSA/PBS solution in the tube and reacted for 30 minutes at 4° C., and then centrifuged three times for 5 minutes at 1500 rpm. After washing with cold PBS, the cells were transferred to a round tube and analyzed by flow cytometry (FACS). Before measuring samples, a control reference value was fixed using THY1 for human dermal fibroblasts and EPCAM for a human mammary epithelial cell (HMEC).
In general terms: A flow cytometer gives signals particle by particle.

Here are results for 3 sequences from patent US10066212B2, “Method for preparing induced pluripotent stem cells using synthetic peptide” (Seoul National University R&DB Foundation, priority 2015, dated 2018).

With “GKCSTRGRKCCRRKK (Functional Peptide P1) [dedifferentiation induction-promoting functional peptide]”, in assay [1], the “dedifferentiation induction, graph counting and quantifying the number of colonies” value (“dedifferentiation induction” below) is “more efficiently induced dedifferentiation”; the AP-stained colonies entry is “more colonies were stained”; the AP staining clarity entry is reported as “clearer”. Also, the “Oct4 fluorescence expression (IF)” value in assay [2] was “more fluorescence was expressed”. Further, the “change of mesenchymal shape of dermal fibroblasts to epithelial shape (THY1/EPCAM, FACS)” value (“change of mesenchymal shape … (THY1/EPCAM, FACS)” for short) in assay [3] is on record as “significantly changed to an epithelial shape”.

As to “GKCSTRGRKCMRRKK (Functional Peptide P2) [peptide P1 with the fifth cysteine of C terminal substituted with methionine]”, in assay [1], the “dedifferentiation induction” value was “more efficiently induced dedifferentiation”; the AP-stained colonies entry was “more colonies were stained”; the AP staining clarity result is listed as “clearer”. The “Oct4 fluorescence expression (IF)” value in assay [2] is “more fluorescence was expressed”. For the same sequence, the “change of mesenchymal shape … (THY1/EPCAM, FACS)” value in assay [3] is “significantly changed to an epithelial shape”.

For GKCSTRGRKMCRRKK [Peptide P3], in assay [1], the “dedifferentiation induction” value is “more efficiently induced dedifferentiation”; the AP-stained colonies result is “more colonies were stained”; the AP staining clarity entry is reported as “clearer”. Moreover, the “Oct4 fluorescence expression (IF)” value in assay [2] is reported as “more fluorescence was expressed”. Also, in assay [3], the “change of mesenchymal shape … (THY1/EPCAM, FACS)” value is reported as “significantly changed to an epithelial shape”.
